Results as given in publication PMC10502144, “Anti-methicillin-resistant Staphylococcus aureus activity and safety evaluation of 14-O-[(5-ethoxycarbonyl-4,6-dimethylpyrimidine-2-yl) thioacetyl] mutilin (EDT)” (Scientific Reports, 2023).
In brackets after ≈: the same amount, converted by molar mass. Like-named read-outs stand apart in the source and are kept apart here.

Assays:
[1] = Cytotoxicity assay (CCK-8), HepG2; format: cell-based; settings: human, HepG2 cells
Description: Cytotoxicity of EDT and tiamulin was studied against human hepatocellular carcinoma cells (HepG2) and human embryonic kidney 293T (HEK293T) cells following a protocol as published in our earlier reports[41],[42]. Cells were counted and inoculated into 96-well plates with approximately10^5 cells density for incubating 24 h at 37 °C. […] The same procedure was repeated three times. The percentages of cell viability were calculated by the formula: Cell viability (%) = [Asample ‒ Anegative]/[Apositve ‒ Anegative] × 100%.

MRSA-337371 = assay: microbe, parasite or virus in culture; format: cell-based, methicillin-resistant Staphylococcus aureus; settings: for MIC: Staphylococcus aureus, MRSA
Description: We performed resistance induction tests on EDT and tiamulin which was used as a referent drug. […] Finally, MRSA was cultured for 30 generations with the same procedure. At the 31st generation, drugs were removed until 40th generation and MICs were determined in each generation.

[2] = test system: clinical isolates of MRSA; assay: MIC by broth serial-dilution against 48 clinical isolates of MRSA; format: cell-based, methicillin-resistant Staphylococcus aureus; settings: Staphylococcus aureus, MRSA, read-out: MIC values against 48 strains, range over 48 clinical isolates of MRSA
Description: The tests against 48 clinical isolates of MRSA from dairy farms in 4 different provinces in China[37] were conducted in triplicate, using broth serial-dilution method in 96-well plates according to CLSI reference methods. Briefly, EDT and tiamulin fumarate used as referent drug were dissolved in 25% dimethyl sulfoxide (DMSO) to a solution with concentration of 64 μg/mL. The obtained 100 μL solutions were then added into the first column of the 96-well plate, and diluted to the tenth well with serial twofold dilutions. The last two wells were used as positive controls. The 100 μL bacterial suspension was diluted in MHB to give a final organism density of to 10^5 ~ 10^6 colony-forming unit (CFU) per 1 mL and added to all the wells, followed by incubating at 37 °C for 24 h. […] The results were expressed as an average of the MICs obtained from three independent experiments.

## C=CC1(C)CC(OC(=O)CSc2nc(C)c(C(=O)OCC)c(C)n2)C2(C)C(C)CCC3(CCC(=O)C32)C(C)C1O (stereo not shown) [EDT, 14-O-[(5-ethoxycarbonyl-4,6-dimethylpyrimidine-2-yl)thioacetyl] mutilin]
[1]; HepG2, 100 μM, read-out: cell viability
  viability at 6 h, 100 µM: 99.7%
[1]; HepG2, 200 μM converted to μg/mL
  CC50 at 6 h: > 115 µg/mL
[1]; HepG2, 200 μM, read-out: cell viability
  viability at 6 h, 200 µM: 77.5%
[1]; HepG2, deduced from Fig. 5
  CC50 at 6 h: > 200 µM
MRSA-337371; 30 generations under the subinhibitory concentration (1/4 MIC)
  increase of MIC: fourfold
MRSA-337371; 24 h, read-out: MIC in the resistance development study, day 1
  MIC: 0.0313 µg/mL (≈ 0.0546 µM)
MRSA-337371; 48 h, read-out: MIC in the resistance development study, day 2
  MIC: 0.0313 µg/mL (≈ 0.0546 µM)
MRSA-337371; 72 h, read-out: MIC in the resistance development study, day 3
  MIC: 0.0313 µg/mL (≈ 0.0546 µM)
MRSA-337371; 96 h, read-out: MIC in the resistance development study, day 4
  MIC: 0.0313 µg/mL (≈ 0.0546 µM)
MRSA-337371; 120 h, read-out: MIC in the resistance development study, day 5
  MIC: 0.0313 µg/mL (≈ 0.0546 µM)
MRSA-337371; 144 h, read-out: MIC in the resistance development study, day 6
  MIC: 0.0313 µg/mL (≈ 0.0546 µM)
MRSA-337371; 168 h, read-out: MIC in the resistance development study, day 7
  MIC: 0.0313 µg/mL (≈ 0.0546 µM)
MRSA-337371; 192 h, read-out: MIC in the resistance development study, day 8
  MIC: 0.0313 µg/mL (≈ 0.0546 µM)
MRSA-337371; 216 h, read-out: MIC in the resistance development study, day 9
  MIC: 0.0313 µg/mL (≈ 0.0546 µM)
MRSA-337371; 240 h, read-out: MIC in the resistance development study, day 10
  MIC: 0.0313 µg/mL (≈ 0.0546 µM)
MRSA-337371; 264 h, read-out: MIC in the resistance development study, day 11
  MIC: 0.0313 µg/mL (≈ 0.0546 µM)
MRSA-337371; 288 h, read-out: MIC in the resistance development study, day 12
  MIC: 0.0625 µg/mL (≈ 0.109 µM)
MRSA-337371; 312 h, read-out: MIC in the resistance development study, day 13
  MIC: 0.0625 µg/mL (≈ 0.109 µM)
MRSA-337371; 336 h, read-out: MIC in the resistance development study, day 14
  MIC: 0.0313 µg/mL (≈ 0.0546 µM)
MRSA-337371; 360 h, read-out: MIC in the resistance development study, day 15
  MIC: 0.0313 µg/mL (≈ 0.0546 µM)
MRSA-337371; 384 h, read-out: MIC in the resistance development study, day 16
  MIC: 0.0313 µg/mL (≈ 0.0546 µM)
MRSA-337371; 408 h, read-out: MIC in the resistance development study, day 17
  MIC: 0.0625 µg/mL (≈ 0.109 µM)
MRSA-337371; 432 h, read-out: MIC in the resistance development study, day 18
  MIC: 0.0625 µg/mL (≈ 0.109 µM)
MRSA-337371; 456 h, read-out: MIC in the resistance development study, day 19
  MIC: 0.0625 µg/mL (≈ 0.109 µM)
MRSA-337371; 480 h, read-out: MIC in the resistance development study, day 20
  MIC: 0.125 µg/mL (≈ 0.218 µM)
MRSA-337371; 504 h, read-out: MIC in the resistance development study, day 21
  MIC: 0.125 µg/mL (≈ 0.218 µM)
MRSA-337371; 528 h, read-out: MIC in the resistance development study, day 22
  MIC: 0.125 µg/mL (≈ 0.218 µM)
MRSA-337371; 552 h, read-out: MIC in the resistance development study, day 23
  MIC: 0.125 µg/mL (≈ 0.218 µM)
MRSA-337371; 576 h, read-out: MIC in the resistance development study, day 24
  MIC: 0.125 µg/mL (≈ 0.218 µM)
MRSA-337371; 600 h, read-out: MIC in the resistance development study, day 25
  MIC: 0.125 µg/mL (≈ 0.218 µM)
MRSA-337371; 624 h, read-out: MIC in the resistance development study, day 26
  MIC: 0.125 µg/mL (≈ 0.218 µM)
MRSA-337371; 648 h, read-out: MIC in the resistance development study, day 27
  MIC: 0.125 µg/mL (≈ 0.218 µM)
MRSA-337371; 672 h, read-out: MIC in the resistance development study, day 28
  MIC: 0.125 µg/mL (≈ 0.218 µM)
MRSA-337371; 696 h, read-out: MIC in the resistance development study, day 29
  MIC: 0.125 µg/mL (≈ 0.218 µM)
MRSA-337371; MRSA-337371, MIC used to set 1×-8× MIC in the PAE test
  MIC: 0.0313 µg/mL (≈ 0.0546 µM)
MRSA-337371; read-out: MIC in the resistance development study, day 30
  MIC: 0.125 µg/mL (≈ 0.218 µM)
MRSA-337371; read-out: MIC in the resistance development study, day 31, drugs removed
  MIC: 0.125 µg/mL (≈ 0.218 µM)
MRSA-337371; read-out: MIC in the resistance development study, day 32, drugs removed
  MIC: 0.125 µg/mL (≈ 0.218 µM)
MRSA-337371; read-out: MIC in the resistance development study, day 33, drugs removed
  MIC: 0.0625 µg/mL (≈ 0.109 µM)
MRSA-337371; read-out: MIC in the resistance development study, day 34, drugs removed
  MIC: 0.0625 µg/mL (≈ 0.109 µM)
MRSA-337371; read-out: MIC in the resistance development study, day 35, drugs removed
  MIC: 0.0313 µg/mL (≈ 0.0546 µM)
MRSA-337371; read-out: MIC in the resistance development study, day 36, drugs removed
  MIC: 0.0313 µg/mL (≈ 0.0546 µM)
MRSA-337371; read-out: MIC in the resistance development study, day 37, drugs removed
  MIC: 0.0313 µg/mL (≈ 0.0546 µM)
MRSA-337371; read-out: MIC in the resistance development study, day 38, drugs removed
  MIC: 0.0313 µg/mL (≈ 0.0546 µM)
MRSA-337371; read-out: MIC in the resistance development study, day 39, drugs removed
  MIC: 0.0313 µg/mL (≈ 0.0546 µM)
MRSA-337371; read-out: MIC in the resistance development study, day 40, drugs removed
  MIC: 0.0313 µg/mL (≈ 0.0546 µM)
MRSA-337371; after removing drugs and culturing for additional 10 generations
  sensitivity of MRSA after removing drugs: recovered the initial sensitivity
MRSA-337371; at 22 generations
  increase in the MIC values: fourfold
[2]
  MIC: 0.0313 to 0.0625 µg/mL (≈ 0.0546 to 0.109 µM)
